Source: patent US8071777B2, “Compounds derived from artesunate, preparation process, pharmaceutical composition and use of the respective medicine” (Fundação Oswaldo Cruz - FIOCRUZ, priority 2004, dated 2011)
Converted amounts (≈) assume the structure as drawn. “And” between values parts separate entries of the source, which are not always exact repeats. Equal values may be shown once. Read-outs that look alike come from different tables or passages of the source.

Experiments:
Plasmodium berghei = test: Antimalarial activity in vivo in mice infected with Plasmodium berghei NK 65, oral treatment for 4 days; settings: for Average parasitaemia (%) ± SD on day 5 / Average parasitaemia (%) ± SD on day 7: 12 mg/kg via oral for 4 days in sequence, mice infected by Plasmodium berghei; for Average parasitaemia (%) ± SD on day 5: day 5 of infection; for Average parasitaemia (%) ± SD on day 7: day 7 of infection; for Cumulative mortality on day 10 of infection / Cumulative mortality on day 19 of infection / Cumulative mortality on day 23 of infection / Cumulative mortality on day 35 of infection / Cumulative mortality on day 48 of infection: 5 mice in each group; for % Inhibition of parasitaemia on day 5: day 5, in relation to the group control not treated; for % Inhibition of parasitaemia on day 7: day 7, in relation to the group control not treated; for Suppression of the acute parasitaemia of treated animals: evaluations on the 5th and 7th day after the infection; for Parasitaemia at late follow-up: negative or recrudescence: new blood samples days 30 to 48
Protocol: To evaluate the antimalarial activity the following tests were carried out in different experiments in vivo using groups of Swiss female albino mice, weighing between 18 and 22 g. These mice were innoculated with 100,000 red cells infected with strain NK 65 of Plasmodium berghei (cause of malaria in rodents) according to the scheme previously proposed (Peters et al., Annals of Tropical Medicine and Parasitology, 1993, 87, 547). After inoculating the parasite via intraperitoneal, the animals were divided at random into groups of five. The treatment of the mice were initiated the day after the inoculation, for 4 days in sequence, applying samples “A”, “B” e “C” administered via oral. The different groups of mice, represented by groups treated and not treated (group control) were kept in the same conditions, in polyacetylene cages, water and ration was offered ad libitum. A group was treated with chloroquine, an antimalarial of reference. The development of the infection was verified in all groups through blood samples collected for parasitaemia on the 5th and 7th day after the infection, and the parasitaemia was measured based on double blind tests, in codified slides, in order to minimize occasional bias.
(§1) Not only in vivo but also in vitro, the activity of drugs was evaluated in relation to the group control without any drugs.

P. falciparum (W2) = test: Antimalarial activity in vitro against P. falciparum cultivated in red cells, 72 hours; assay type: cell-based; settings: for IC50: Plasmodium falciparum
Protocol: The tests in vitro to evaluate the antimalarial activity were carried out with P. falciparum cultivated in red cells in 10% of human serum, in slabs of 96 wells, using Rieckman et al's traditional method, modified by Carvalho et al. Braz J. Med. Biol. Research, 1991. The parasites were incubated for 72 hours in culture medium having samples “A”, “B” and “C” in different dilutions in ideal atmospherical conditions at 37° C.; drugs and the culture medium was changed every 24 hours. After this period, blood samples were collected for evaluation of the activity of each compound. As to control wells with complete culture medium were maintained, but with no addition of drugs, and wells in which chloroquine was present in different tested concentrations in triplicate.
as §1

[1] = 12 mg/kg via oral for 4 days, day 48
[2] = P. falciparum (W2) in vitro, Experiment 1, approximated
[3] = P. falciparum (W2) in vitro, Experiment 2, approximated
[4] = W2, read-out: Inhibiting concentration (IC) 50%, Experiment 1
[5] = W2, read-out: Inhibiting concentration (IC) 50%, Experiment 2

SMILES | Average parasitaemia (%) ± SD on day 5 (Plasmodium berghei) [%] | Average parasitaemia (%) ± SD on day 7 (Plasmodium berghei) [%] | Cumulative mortality on day 10 of infection (Plasmodium berghei; 12 mg/kg via oral for 4 days) | Cumulative mortality on day 19 of infection (Plasmodium berghei; 12 mg/kg via oral for 4 days) | Cumulative mortality on day 23 of infection (Plasmodium berghei; 12 mg/kg via oral for 4 days) | Cumulative mortality on day 35 of infection (Plasmodium berghei; 12 mg/kg via oral for 4 days) | Cumulative mortality on day 48 of infection (Plasmodium berghei; [1]) | % Inhibition of parasitaemia on day 5 (Plasmodium berghei; 12 mg/kg via oral for 4 days) | % Inhibition of parasitaemia on day 7 (Plasmodium berghei; 12 mg/kg via oral for 4 days) | Suppression of the acute parasitaemia of treated animals (Plasmodium berghei; 12 mg/kg via oral) [%] | Parasitaemia at late follow-up: negative or recrudescence (Plasmodium berghei; 12 mg/kg via oral) | Inhibiting concentration (IC) 40%, Experiment 1 (P. falciparum (W2); [2]) [ng/mL] | Inhibiting concentration (IC) 80%, Experiment 1 (P. falciparum (W2); [2]) [ng/mL] | Inhibiting concentration (IC) 95%-100%, Experiment 1 (P. falciparum (W2); [2]) | Inhibiting concentration (IC) 40%, Experiment 2 (P. falciparum (W2); [3]) [ng/mL] | Inhibiting concentration (IC) 80%, Experiment 2 (P. falciparum (W2); [3]) | Inhibiting concentration (IC) 95%-100%, Experiment 2 (P. falciparum (W2); [3]) | IC50 (P. falciparum (W2); [4]) [ng/mL] | IC50 (P. falciparum (W2); [5]) [ng/mL] | other results
CC1CCC2C(C)C(OC(=O)CCC(=O)O)OC3OC4(C)CCC1C32OO4.OC(c1cc(C(F)(F)F)nc2c(C(F)(F)F)cccc12)C1CCCCN1 (stereo not drawn) [A, salt of artesunate and mefloquine] | 0 | 0 | 0 | 0 | 0 | 0 | 0 | (100%) | (100%) | 100 | remained negative | 0.83 | 1.85 | 4.07 ng/mL | 0.46 | 1.5 ng/mL | ≧5 ng/ml | – | – | Cure of malaria in treated animals (Plasmodium berghei; 12 mg/kg via oral for 4 days): the cure of malaria was observed; Inhibiting concentration (IC) 50%, Experiment 1 (P. falciparum (W2); [2]): 1.03 ng/mL; Inhibiting concentration (IC) 50%, Experiment 2 (P. falciparum (W2); [3]): 0.8 ng/mL
C[C@H]1[C@H](OC(=O)CCC(=O)O)O[C@@H]2O[C@@]3(C)CC[C@H]4[C@H](C)CC[C@@H]1[C@@]24OO3 [B, artesunate] | 0 | 0 | 0 | 0 | 1 | 2 | 3 | (100%) | (100%) | 100 | showed recrudescency of the parasitaemia | 0.37 | 0.99 | 1.54 ng/mL | 0.33 | 1.3 ng/mL | ≧5 ng/ml | 0.46 (≈ 1.2 nM) | 0.43 (≈ 1.12 nM) | Mortality during follow-up of treatment (Plasmodium berghei; 12 mg/kg via oral, follow-up of about 30 days): mortality occurred; % parasitaemia, Average ± Sd, day 30 (Plasmodium berghei; 12 mg/kg, group average, day 30): 16.6 ± 20.4%; % parasitaemia, Average ± Sd, day 33 (Plasmodium berghei; 12 mg/kg, group average, day 33): 23.3 ± 24.3%; % parasitaemia, Average ± Sd, day 36 (Plasmodium berghei; 12 mg/kg, group average, day 36): 33.5 ± 27.4%; % parasitaemia, Average ± Sd, day 48 (Plasmodium berghei; 12 mg/kg, group average, day 48): 30 ± 21.2%; % Individual parasitaemia on day 30 (recrudescence) (Plasmodium berghei; 12 mg/kg, individual animals infected by P. berghei, day 30, † = Animal death): 0.6% and 24% and 0% and 42%; % Individual parasitaemia on day 33 (recrudescence) (Plasmodium berghei; 12 mg/kg, individual animals infected by P. berghei, day 33, † = Animal death): 5% and 40% and 0% and 48%; % Individual parasitaemia on day 36 (recrudescence) (Plasmodium berghei; 12 mg/kg, individual animals infected by P. berghei, day 36, † = Animal death): 14% and 53% and 0%; % Individual parasitaemia on day 48 (recrudescence) (Plasmodium berghei; 12 mg/kg, individual animals infected by P. berghei, day 48, † = Animal death): 30% and 0%
OC(c1cc(C(F)(F)F)nc2c(C(F)(F)F)cccc12)C1CCCCN1 (stereo not drawn) [C, mefloquine] | 0 | 0 | 0 | 0 | 0 | 0 | 0 | (100%) | (100%) | 100 | remained negative | 0.93 | 12.9 | ≧50 ng/ml | 2.8 | ≧5 ng/ml | ≧5 ng/ml | – | – | IC50 (P. falciparum (W2); P. falciparum (W2) in vitro, Experiment 1, approximated, read-out: Inhibiting concentration (IC) 50%, Experiment 1): 1.24 ng/mL (≈ 3.28 nM); IC50 (P. falciparum (W2); P. falciparum (W2) in vitro, Experiment 2, approximated, read-out: Inhibiting concentration (IC) 50%, Experiment 2): 3.4 ng/mL (≈ 8.99 nM)
CCN(CC)CCCC(C)Nc1ccnc2cc(Cl)ccc12 (stereo not drawn) [QC, chloroquine] | – | – | – | – | – | – | – | – | – | – | – | 41.1 | 82.3 | 277.7 ng/mL | 48.2 | 133.4 ng/mL | ≧200 ng/ml | 51.3 (≈ 160 nM) | 55.5 (≈ 174 nM) | –
